Experimental findings from ChEMBL document CHEMBL2073912, “Biochemical basis of polyvalency as a strategy for enhancing the efficacy of P-glycoprotein (ABCB1) modulators: stipiamide homodimers separated with defined-length spacers reverse drug efflux with greater efficacy” (Biochemistry, 2004) are described below.

This series has as its target ATP-dependent translocase ABCB1 (Homo sapiens, UniProt P08183). Description: TP_TRANSPORTER: increase in bodipy-FL-prazosin intracellular accumulation in MDR1-expressing NIH-3T3 cells. The class given is functional, cell-based. Conditions: mouse, nih3t3.

The structures appear in SMILES notation.

Chain of ATP-dependent translocase ABCB1 (P08183 whole entry): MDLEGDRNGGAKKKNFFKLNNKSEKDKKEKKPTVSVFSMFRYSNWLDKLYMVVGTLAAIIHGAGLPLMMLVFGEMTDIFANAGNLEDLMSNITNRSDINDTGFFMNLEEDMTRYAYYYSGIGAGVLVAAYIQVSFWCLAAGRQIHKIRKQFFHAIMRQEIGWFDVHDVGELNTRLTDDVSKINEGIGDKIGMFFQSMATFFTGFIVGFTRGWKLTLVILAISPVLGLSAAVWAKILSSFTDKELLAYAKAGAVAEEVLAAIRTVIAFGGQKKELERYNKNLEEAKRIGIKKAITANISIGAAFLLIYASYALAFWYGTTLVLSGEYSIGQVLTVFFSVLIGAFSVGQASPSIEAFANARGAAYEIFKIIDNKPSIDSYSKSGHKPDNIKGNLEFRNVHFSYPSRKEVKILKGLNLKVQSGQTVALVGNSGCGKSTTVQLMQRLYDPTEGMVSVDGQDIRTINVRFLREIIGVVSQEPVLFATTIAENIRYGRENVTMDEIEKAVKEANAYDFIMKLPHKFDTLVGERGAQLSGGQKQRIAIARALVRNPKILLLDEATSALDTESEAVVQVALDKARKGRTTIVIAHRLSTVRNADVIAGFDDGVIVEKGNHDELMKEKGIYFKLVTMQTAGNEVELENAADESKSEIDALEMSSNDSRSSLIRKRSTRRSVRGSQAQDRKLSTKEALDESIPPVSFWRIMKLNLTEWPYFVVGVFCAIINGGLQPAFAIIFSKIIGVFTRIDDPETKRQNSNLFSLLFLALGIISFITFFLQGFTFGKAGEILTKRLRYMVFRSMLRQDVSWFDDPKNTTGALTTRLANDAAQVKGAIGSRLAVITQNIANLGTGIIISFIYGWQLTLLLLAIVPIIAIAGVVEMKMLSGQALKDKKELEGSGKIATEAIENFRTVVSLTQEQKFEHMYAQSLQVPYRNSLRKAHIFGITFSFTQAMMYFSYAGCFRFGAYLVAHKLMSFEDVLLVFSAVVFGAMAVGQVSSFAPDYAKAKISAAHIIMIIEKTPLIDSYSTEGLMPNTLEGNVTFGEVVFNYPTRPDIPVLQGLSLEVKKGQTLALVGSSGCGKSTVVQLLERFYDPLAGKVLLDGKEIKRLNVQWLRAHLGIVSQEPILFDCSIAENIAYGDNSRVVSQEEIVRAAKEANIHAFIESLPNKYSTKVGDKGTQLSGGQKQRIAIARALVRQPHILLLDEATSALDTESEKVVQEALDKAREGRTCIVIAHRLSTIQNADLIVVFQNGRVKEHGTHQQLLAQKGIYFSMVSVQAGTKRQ

Consider `C/C(=C\CCC#C/C=C/C(C)C(O)/C(C)=C/CCc1cccc2ccccc12)C(=O)NCCOCCOCCOCCOCCOCCOCCOCCOCCOCCOCCOCCOCNC(=O)/C(C)=C/CCC#C/C=C/C(C)C(O)/C(C)=C/CCc1ccc2ccccc2c1` (stereo unspecified), for which the Activity entry was “inhibitor [+]”.

In the case of `C/C(=C\CCC#C/C=C/C(C)C(O)/C(C)=C/CCc1cccc2ccccc12)C(=O)NCCOCCOCCOCCOCCOCCOCCOCCOCNC(=O)/C(C)=C/CCC#C/C=C/C(C)C(O)/C(C)=C/CCc1ccc2ccccc2c1` (stereo unspecified), the Activity entry is “inhibitor [+]”.

For `C/C(=C\CCC#C/C=C/C(C)C(O)/C(C)=C/CCc1ccc2ccccc2c1)C(=O)NCCOCCOCCOCCOCCOCCNC(=O)/C(C)=C/CCC#C/C=C/C(C)C(O)/C(C)=C/CCc1cccc2ccccc12` (stereo unspecified), the Activity entry was “inhibitor [+]”.

Turning to `C/C(=C\CCC#C/C=C/C(C)C(O)/C(C)=C/CCc1cccc2ccccc12)C(=O)NCCOCCOCNC(=O)/C(C)=C/CCC#C/C=C/C(C)C(O)/C(C)=C/CCc1ccc2ccccc2c1` (stereo unspecified), the Activity result was “is not an inhibitor [-]”.

With `C/C(=C\CCC#C/C=C/C(C)C(O)/C(C)=C/CCc1ccc2ccccc2c1)C(=O)NCNC(=O)/C(C)=C/CCC#C/C=C/C(C)C(O)/C(C)=C/CCc1cccc2ccccc12` (stereo unspecified), the Activity entry was “is not an inhibitor [-]”.

On to `C/C(=C\CCC#C/C=C/C(C)C(O)/C(C)=C/CCc1cccc2ccccc12)C(=O)NCCOCCOCCOCCOCCOCCO` (stereo unspecified) [STIPIAMIDE MONOMER], for which the Activity result was “is not an inhibitor [-]”.
